# Measured values published in PMC6709783, “Structural Basis for Allosteric Ligand Recognition in the Human CC Chemokine Receptor 7” (Cell, 2019).
# T1: human CCR7 (Homo sapiens, UniProt P32248, L145W)
# T1 construct: enhanced green fluorescent protein (eGFP) (C); decahistidine-tag (His10) (C); made in house; host or cells: Sf9 insect cells (baculovirus)
# T1 sequence (P32248 25-348 L145W): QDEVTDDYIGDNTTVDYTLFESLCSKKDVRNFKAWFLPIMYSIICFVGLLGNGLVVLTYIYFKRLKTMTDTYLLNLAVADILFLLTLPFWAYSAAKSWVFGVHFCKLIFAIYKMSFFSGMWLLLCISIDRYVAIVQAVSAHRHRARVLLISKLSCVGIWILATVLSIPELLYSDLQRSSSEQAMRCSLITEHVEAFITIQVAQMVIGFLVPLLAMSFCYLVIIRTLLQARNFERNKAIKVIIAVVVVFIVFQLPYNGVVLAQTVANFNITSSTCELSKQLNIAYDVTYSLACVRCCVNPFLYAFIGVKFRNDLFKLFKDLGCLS
# T2: CCR7 (Homo sapiens, UniProt P32248)
# T2 construct: host or cells: CHO-K1 (PathHunter eXpress CCR7 β-Arrestin)
# T2 sequence (P32248 25-378): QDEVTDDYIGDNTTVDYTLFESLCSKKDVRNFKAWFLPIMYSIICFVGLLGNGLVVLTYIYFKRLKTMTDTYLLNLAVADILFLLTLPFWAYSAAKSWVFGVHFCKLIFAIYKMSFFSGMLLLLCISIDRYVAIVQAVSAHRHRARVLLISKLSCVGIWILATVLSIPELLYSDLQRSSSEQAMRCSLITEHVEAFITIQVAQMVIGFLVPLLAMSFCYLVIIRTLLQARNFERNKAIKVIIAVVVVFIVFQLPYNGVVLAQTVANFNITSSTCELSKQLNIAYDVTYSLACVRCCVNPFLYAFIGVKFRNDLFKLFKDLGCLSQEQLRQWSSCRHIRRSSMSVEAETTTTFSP
# T3: CCR7 in PathHunter eXpress CCR7 CHO-K1 β-Arrestin cells (human, UniProt P32248 25-378)
# T3 sequence (looked up): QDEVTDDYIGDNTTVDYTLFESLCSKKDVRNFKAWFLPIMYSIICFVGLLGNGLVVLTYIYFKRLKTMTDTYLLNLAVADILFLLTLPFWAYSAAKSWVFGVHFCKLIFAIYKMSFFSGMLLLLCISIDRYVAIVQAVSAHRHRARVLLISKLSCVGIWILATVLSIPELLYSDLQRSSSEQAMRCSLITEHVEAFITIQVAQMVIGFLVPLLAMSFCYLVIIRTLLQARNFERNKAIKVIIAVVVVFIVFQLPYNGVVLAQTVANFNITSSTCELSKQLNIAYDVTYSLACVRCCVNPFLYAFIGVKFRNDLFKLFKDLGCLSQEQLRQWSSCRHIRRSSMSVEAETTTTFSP
# Assays:
# human CCR7 = molecular target: T1, human CCR7; test: Thermofluor stability assay (thermal shift, CPM dye) with purified CCR7-L145W; format: binding; details: Figure 4B; for thermo-stabilizing effect on CCR7 (in words): known chemokine receptor ligands tested for selectivity of the pocket
# Procedure: The plate was sealed and incubated for 30 min on ice. A 1:100 (v/v) working solution of the CPM (N-[4-(7-diethylamino-4-methyl-3-coumarinyl)phenyl]maleimide) dye stock (3 mg/mL in DMSO) was prepared and 5.14 μL of this solution were added to each well and mixed thoroughly. Out of each well, 3 × 20 μL were distributed into 0.1 mL Rotor-Gene Q tubes (QIAGEN). […] The gain set was determined at the beginning of the run. The melting temperature (Tm) was calculated from the point of inflection.
# All liquid-handling steps were performed using a Bravo automated liquid handling platform and a 96LT head.
# Melting temperatures (Tm) in the thermofluor stability assays were calculated and analyzed by automated scripts based on a fit to the Boltzmann equation. Details on significance levels and number of experiments are given in the corresponding figure legends.
# CCR7 = molecular target: T2, CCR7; test: Cellular arrestin recruitment assay (PathHunter eXpress CCR7 CHO-K1 β-Arrestin); format: cell-based; details: agonist concentration used for challenge
# Description: Microplates were read following signal generation with a PerkinElmer Envision™ instrument for chemiluminescent signal detection.
# CCR5 receptor = details: ref Knepp et al., 2011; cited from earlier work
# [1] = molecular target: T3, CCR7 in PathHunter eXpress CCR7 CHO-K1 …; test: cell-based or functional assay
molecule,measurement,setting,value
CC1(C)CN2C(CSC(=NC3CCCCC3)NC3CCCCC3)=CSC2=N1 [IT1t],thermo-stabilizing effect on CCR7 (in words),human CCR7,did not affect CCR7
CCL19: native chemokine agonist of CCR7 (human CCL19),"EC80 concentration, arrestin recruitment",CCR7,57 nM
Maraviroc,thermo-stabilizing effect on CCR7 (in words),human CCR7,did not affect CCR7
same,stabilizing effect on CCR5,CCR5 receptor,up to 18.9 °C
CCOc1ccc(NC(=O)C2CCN(C3=NS(=O)(=O)C(c4ccc(OC)cc4)=C3C)CC2)cc1 [CS-1],stabilizing effect on CCR7,human CCR7; hit from virtual and automated thermofluor screening (50 μM ligand),2.4 °C
CC(C)Cc1ccc([C@@H](C)C(=O)NS(C)(=O)=O)cc1 [Reparixin],thermo-stabilizing effect on CCR7 (in words),human CCR7,Neither did the CXCR2 antagonist Danirixin nor the CXCR1 and CXCR2 antagonist Reparixin stabilize CCR7
"human CCL19 (ligand, UniProt Q99731 22-98, looked up, radioactive label (2200 Ci/mmole) on the labeled part of the mixture) GTNDAEDCCLSVTQKPIPGYIVRNFHYLLIKDGCRVPAVVFTTLRGRQLCAPPDQPWVERIIQRLQRTSAKMKRRSS","arrestin recruitment in PathHunter eXpress CCR7 CHO-K1 β-Arrestin cells, dose response of CCL19 (EC50)",[1],12 nM
